Data reported in patent US20220119354A1, “DIAMINO-SUBSTITUTED PYRIDINES AND PYRIMIDINES AS HERBICIDES” (FMC Corporation, priority 2019, published 2022).

Assays:
Format in all cases: in vivo
[1] = system: barnyardgrass (Echinochloa crus-galli); experiment: Test A preemergence, barnyardgrass; conditions: 0 to 100 scale, 0 is no effect, 100 is complete control
How it was run: (§1)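 Seeds sown in loam–sand blend received a directed soil spray of test chemical in non-phytotoxic solvent with surfactant (preemergence); postemergence plants at 2–10 cm, one- to two-leaf stage, were sprayed with the same formulation. Injury rated visually versus untreated controls after ~10 d in greenhouse, 0–100 scale.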

kochia (Kochia scoparia) [2] = experiment: Test A preemergence, kochia; conditions: 0 to 100 scale, 0 is no effect, 100 is complete control
How it was run: as §1

[3] = system: ragweed (common ragweed, Ambrosia elatior); experiment: Test A preemergence, ragweed; conditions: 0 to 100 scale, 0 is no effect, 100 is complete control
How it was run: as §1

[4] = system: ryegrass, Italian (Lolium multiflorum); experiment: Test A preemergence, Italian ryegrass; conditions: 0 to 100 scale, 0 is no effect, 100 is complete control
How it was run: as §1

[5] = system: foxtail, giant (Setaria faberii); experiment: Test A preemergence, giant foxtail; conditions: 0 to 100 scale, 0 is no effect, 100 is complete control
How it was run: as §1

[6] = system: pigweed (Amaranthus retroflexus); experiment: Test A preemergence, pigweed; conditions: 0 to 100 scale, 0 is no effect, 100 is complete control
How it was run: as §1

[7] = system: barnyardgrass (Echinochloa crus-galli); experiment: Test A postemergence, barnyardgrass; conditions: 0 to 100 scale, 0 no effect, 100 complete control
How it was run: as §1

kochia (Kochia scoparia) [8] = experiment: Test A postemergence, kochia; conditions: 0 to 100 scale, 0 no effect, 100 complete control
How it was run: as §1

[9] = system: ragweed (common ragweed, Ambrosia elatior); experiment: Test A postemergence, ragweed; conditions: 0 to 100 scale, 0 no effect, 100 complete control
How it was run: as §1

[10] = system: ryegrass, Italian (Lolium multiflorum); experiment: Test A postemergence, Italian ryegrass; conditions: 0 to 100 scale, 0 no effect, 100 complete control
How it was run: as §1

[11] = system: foxtail, giant (Setaria faberii); experiment: Test A postemergence, giant foxtail; conditions: 0 to 100 scale, 0 no effect, 100 complete control
How it was run: as §1

[12] = system: pigweed (Amaranthus retroflexus); experiment: Test A postemergence, pigweed; conditions: 0 to 100 scale, 0 no effect, 100 complete control
How it was run: as §1

[13] = system: wheat (Triticum aestivum); experiment: Test A postemergence, wheat; conditions: 0 to 100 scale, 0 no effect, 100 complete control
How it was run: as §1

corn (Zea mays) = experiment: Test A postemergence, corn; conditions: 0 to 100 scale, 0 no effect, 100 complete control
How it was run: as §1

[14] = system: blackgrass (Alopecurus myosuroides); experiment: Test A postemergence, blackgrass; conditions: 0 to 100 scale, 0 no effect, 100 complete control
How it was run: as §1

[15] = system: galium (catchweed bedstraw, Galium aparine); experiment: Test A postemergence, galium; conditions: 0 to 100 scale, 0 no effect, 100 complete control
How it was run: as §1

rice (Oryza sativa) = experiment: Test B flooded paddy test, rice; conditions: Flood, 250 g ai/ha, applied to paddy water, 2-leaf stage, visual evaluation after 13 to 15 d
How it was run: (§2)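 Each response is a visual 0–100 rating made against untreated controls, where 0 is no effect and 100 is complete control; a dash marks no result. Compound was dosed into 3 cm paddy water over 2-leaf plants, assessed after 13 to 15 d.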

[16] = system: sedge, umbrella (small-flower umbrella sedge, Cyperus difformis); experiment: Test B flooded paddy test, umbrella sedge; conditions: Flood, 250 g ai/ha, applied to paddy water, 2-leaf stage, visual evaluation after 13 to 15 d
How it was run: as §2

[17] = system: ducksalad (Heteranthera limosa); experiment: Test B flooded paddy test, ducksalad; conditions: Flood, 250 g ai/ha, applied to paddy water, 2-leaf stage, visual evaluation after 13 to 15 d
How it was run: as §2

[18] = system: barnyardgrass (Echinochloa crus-galli); experiment: Test B flooded paddy test, barnyardgrass; conditions: Flood, 250 g ai/ha, applied to paddy water, 2-leaf stage, visual evaluation after 13 to 15 d
How it was run: as §2

Row | Compound | Barnyardgrass plant response rating ([1]; 31 g ai/ha) | Barnyardgrass plant response rating ([1]; 125 g ai/ha) | Kochia plant response rating (kochia (Kochia scoparia) [2]; 31 g ai/ha) | Kochia plant response rating (kochia (Kochia scoparia) [2]; 125 g ai/ha) | Ragweed plant response rating ([3]; 31 g ai/ha) | Ragweed plant response rating ([3]; 125 g ai/ha) | Ryegrass, Italian plant response rating ([4]; 31 g ai/ha) | Ryegrass, Italian plant response rating ([4]; 125 g ai/ha) | Foxtail, Giant plant response rating ([5]; 31 g ai/ha) | Foxtail, Giant plant response rating ([5]; 125 g ai/ha) | Pigweed plant response rating ([6]; 31 g ai/ha) | Pigweed plant response rating ([6]; 125 g ai/ha) | Plant response rating, Barnyardgrass ([7]; 31 g ai/ha) | Plant response rating, Barnyardgrass ([7]; 125 g ai/ha) | Plant response rating, Kochia (kochia (Kochia scoparia) [8]; 31 g ai/ha) | Plant response rating, Kochia (kochia (Kochia scoparia) [8]; 125 g ai/ha) | Plant response rating, Ragweed ([9]; 31 g ai/ha) | Plant response rating, Ragweed ([9]; 125 g ai/ha) | Plant response rating, Ryegrass, Italian ([10]; 31 g ai/ha) | Plant response rating, Ryegrass, Italian ([10]; 125 g ai/ha) | further results
1 | CC(F)c1nc(N[C@H](C)c2cc3ccccc3o2)nc(N)c1C(F)(F)F (stereo partly drawn) [Compound 112] | 0 | 0 | 0 | 70 | 0 | 30 | 0 | 0 | 0 | 0 | 0 | 80 | 0 | 0 | 10 | 60 | 0 | 0 | 0 | 0 | Plant response rating, Foxtail, Giant ([11]; 31 g ai/ha): 0; Plant response rating, Foxtail, Giant ([11]; 125 g ai/ha): 0; Plant response rating, Pigweed ([12]; 31 g ai/ha): 30; Plant response rating, Pigweed ([12]; 125 g ai/ha): 60; Plant response rating, Wheat ([13]; 31 g ai/ha): 0; Plant response rating, Wheat ([13]; 125 g ai/ha): 0; Plant response rating, Corn (corn (Zea mays); 31 g ai/ha): 30; Plant response rating, Corn (corn (Zea mays); 125 g ai/ha): 0; Plant response rating, Blackgrass ([14]; 31 g ai/ha): 0; Plant response rating, Blackgrass ([14]; 125 g ai/ha): 0; Plant response rating, Galium ([15]; 31 g ai/ha): 20; Plant response rating, Galium ([15]; 125 g ai/ha): 60; Plant response rating, Rice (0 to 100 scale, 0 is no effect, 100 is complete control) (rice (Oryza sativa)): 0; Plant response rating, Sedge, Umbrella (0 to 100 scale, 0 is no effect, 100 is complete control) [16]: 0; Plant response rating, Ducksalad (0 to 100 scale, 0 is no effect, 100 is complete control) [17]: 0; Plant response rating, Barnyardgrass (0 to 100 scale, 0 is no effect, 100 is complete control) [18]: 0
2 | C[C@@H](Nc1ncc(C(F)(F)F)c(N)n1)c1cc2c(F)ccc(F)c2s1 [Compound 114] | 0 | 40 | 30 | 60 | 40 | 60 | 30 | 50 | 10 | 70 | 50 | 100 | 10 | 30 | 50 | 80 | 40 | 80 | 0 | 40 | Plant response rating, Foxtail, Giant ([11]; 31 g ai/ha): 10; Plant response rating, Foxtail, Giant ([11]; 125 g ai/ha): 100; Plant response rating, Pigweed ([12]; 31 g ai/ha): 100; Plant response rating, Pigweed ([12]; 125 g ai/ha): 100; Plant response rating, Wheat ([13]; 31 g ai/ha): 0; Plant response rating, Wheat ([13]; 125 g ai/ha): 30; Plant response rating, Corn (corn (Zea mays); 31 g ai/ha): 10; Plant response rating, Corn (corn (Zea mays); 125 g ai/ha): 30; Plant response rating, Blackgrass ([14]; 31 g ai/ha): 0; Plant response rating, Blackgrass ([14]; 125 g ai/ha): 30; Plant response rating, Galium ([15]; 31 g ai/ha): 60; Plant response rating, Galium ([15]; 125 g ai/ha): 90; Plant response rating, Rice (0 to 100 scale, 0 is no effect, 100 is complete control) (rice (Oryza sativa)): 20; Plant response rating, Sedge, Umbrella (0 to 100 scale, 0 is no effect, 100 is complete control) [16]: 80; Plant response rating, Ducksalad (0 to 100 scale, 0 is no effect, 100 is complete control) [17]: 65; Plant response rating, Barnyardgrass (0 to 100 scale, 0 is no effect, 100 is complete control) [18]: 65
3 | Cc1cccc2sc([C@@H](C)Nc3ncc(C(F)(F)F)c(N)n3)cc12 [Compound 115] | 20 | 60 | 40 | 80 | 60 | 80 | 20 | 40 | 30 | 90 | 90 | 100 | 10 | 100 | 70 | 90 | 30 | 80 | 30 | 50 | Plant response rating, Foxtail, Giant ([11]; 31 g ai/ha): 60; Plant response rating, Foxtail, Giant ([11]; 125 g ai/ha): 100; Plant response rating, Pigweed ([12]; 31 g ai/ha): 100; Plant response rating, Pigweed ([12]; 125 g ai/ha): 100; Plant response rating, Wheat ([13]; 31 g ai/ha): 0; Plant response rating, Wheat ([13]; 125 g ai/ha): 20; Plant response rating, Corn (corn (Zea mays); 31 g ai/ha): 10; Plant response rating, Corn (corn (Zea mays); 125 g ai/ha): 100; Plant response rating, Blackgrass ([14]; 31 g ai/ha): 0; Plant response rating, Blackgrass ([14]; 125 g ai/ha): 30; Plant response rating, Galium ([15]; 31 g ai/ha): 50; Plant response rating, Galium ([15]; 125 g ai/ha): 90; Plant response rating, Rice (0 to 100 scale, 0 is no effect, 100 is complete control) (rice (Oryza sativa)): 0; Plant response rating, Sedge, Umbrella (0 to 100 scale, 0 is no effect, 100 is complete control) [16]: 95; Plant response rating, Ducksalad (0 to 100 scale, 0 is no effect, 100 is complete control) [17]: 65; Plant response rating, Barnyardgrass (0 to 100 scale, 0 is no effect, 100 is complete control) [18]: 90
4 | C[C@@H](Nc1ncc(C(F)(F)F)c(N)n1)c1cc2c(Cl)cccc2s1 [Compound 116] | 0 | 30 | 30 | 40 | 60 | 70 | 20 | 40 | 20 | 60 | 40 | 80 | 10 | 50 | 30 | 80 | 40 | 60 | 30 | 30 | Plant response rating, Foxtail, Giant ([11]; 31 g ai/ha): 10; Plant response rating, Foxtail, Giant ([11]; 125 g ai/ha): 90; Plant response rating, Pigweed ([12]; 31 g ai/ha): 90; Plant response rating, Pigweed ([12]; 125 g ai/ha): 100; Plant response rating, Wheat ([13]; 31 g ai/ha): 0; Plant response rating, Wheat ([13]; 125 g ai/ha): 0; Plant response rating, Corn (corn (Zea mays); 31 g ai/ha): 20; Plant response rating, Corn (corn (Zea mays); 125 g ai/ha): 30; Plant response rating, Blackgrass ([14]; 31 g ai/ha): 0; Plant response rating, Blackgrass ([14]; 125 g ai/ha): 0; Plant response rating, Galium ([15]; 31 g ai/ha): 60; Plant response rating, Galium ([15]; 125 g ai/ha): 80; Plant response rating, Rice (0 to 100 scale, 0 is no effect, 100 is complete control) (rice (Oryza sativa)): 0; Plant response rating, Sedge, Umbrella (0 to 100 scale, 0 is no effect, 100 is complete control) [16]: 65; Plant response rating, Ducksalad (0 to 100 scale, 0 is no effect, 100 is complete control) [17]: 60; Plant response rating, Barnyardgrass (0 to 100 scale, 0 is no effect, 100 is complete control) [18]: 35
